Test results reported in US4985445A, “Cancer cell metastasis inhibitors and novel compounds” (Meiji Seika Kaisha, Ltd., priority 1988, dated 1991).

Experiments:
[1] = test system: B16 subline of high pulmonary metastatic potential; experiment: Inhibition of pulmonary metastasis of B16 subline pretreated with compound and injected i.v. into BDF1 mice; format: in vivo, murine; mouse BDF1; settings: for Pulmonary Metastasis, Mouse 1 / Pulmonary Metastasis, Mouse 2 / Pulmonary Metastasis, Mouse 3 / Pulmonary Metastasis (Mean ± Standard Deviation): 14 days; for Pulmonary Metastasis (Mean ± Standard Deviation): None 32 ± 3.0; for Pulmonary Metastasis, %: None = 100
Experimental: Based on the method described priviously (Method in Cancer Research, 15, 399-439, 1978), a subline of high metastatic potential (high pulmonary colonization) was selected from murine melanoma B16 by repeating the i.v. transplantation of the tumor cells in BDF1 mice and the isolation of pulmonary metastatic clones.
Evaluation of the metastasis inhibiting activity was performed based on the method described previously (Proc. Natl Acad. Sci. USA, 83, 1752-1756, 1986, Cancer Research, 46, 858-862, 1986).
Firstly, the B16 subline of high metastatic potential was inoculated into Dulbecco's ME medium (DME medium) supplemented with 10% bovine fetal serum and the compound represented by general formula (I) described above was added thereto.
The B16 subline of high pulmonary metastatic potential was inoculated into DME medium supplemented with 10% bovine fetal serum and 30, 100 or 300 μg/ml of N (3-phenylpropyl)-1-deoxynojirimycin was added thereto followed by incubation at 37° C. for 3 days in the presence of 5% CO2.
Inhibition of metastasis was examined in a manner similar to Test Example 2 except that N-(3-phenyl-2-propenyl)-1-deoxy-nojirimycin and N-(3-p-chlorophenyl-3-methyl-2-propenyl)-1-deoxynojirimycin were used instead of N-(3-phenylpropyl)-1-deoxynojirimycin in Test Example 2. In this test example, however, 2.5×10^5 cells each of the B16 subline were transplanted to 3 mice for each group.
The B16 subline of high pulmonary metastatic potential was inoculated into DME medium supplemented with 10% bovine fetal serum and 30 μg/ml of N-(4-phenoxy-trans-2-butenyl)-1-deoxynojirimycin was added thereto followed by incubation at 37° C. for 3 days in the presence of 5% CO2. […] The number of colonies of the B16 subline formed on the surface of and in the lung was counted.
Inhibition of metastasis was examined in a manner similar to Test Example 5 except that N-(2-phenoxyethyl)-1-deoxynojirimycin was used instead of N-(4-phenoxy-trans-2-butenyl)-1-deoxynojirimycin in Test Example 5.
The B16 sibline of high pulmonary metastatic potential was inoculated into DME medium supplemented with 10% bovine fetal serum and 10 μg/ml of D-glucaro-δ-lactam calcium salt was added thereto followed by incubation at 37° C. for 3 days in the presence of 5% CO2. […] The number of the colonies formed on the surface of and in the lung was counted.
Inhibition of metastasis was examined in a manner similar to Test Example 8 except that D-glucaro-δ-lactam methyl ester and D-glucaro-δ-lactam ethyl ester were used instead of D-glucaro-δ-lactam calcium salt in Test Example 8.
The B16 subline of high pulmonary metastatic potential was inoculated into DME medium supplemented with 10% bovine fetal serum and 10 μg/ml of 2,6-di-O-(acetylsalicyloyl)-D-gluco-δ-lactam was added thereto followed by incubation at 37° C. for 3 days in the presence of 5% CO2.
The B16 subline of high pulmonary metastatic potential was inoculated into DME medium supplemented with 10% bovine fetal serum and 30 μg/ml of 6-O-triphenylmethyl-D-gluco-δ-lactam was added thereto followed by incubation at 37° C. for 3 days in the presence of 5% CO2.
The B16 subline of high pulmonary metastatic potential was inoculated into DME medium supplemented with 10% bovine fetal serum and 30 μg/ml of 1-deoxynojirimycin was added thereto followed by incubation at 37° C. for 3 days in the presence of 5% CO2.

[2] = test system: murine tumor cell line L 929; experiment: Cytotoxic activity against L 929 (growth observed with inverted microscope, 4 days); format: cell-based; settings: for Growth: 4 days;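 as to growth: + means growth and ± means marked inhibition and - means cell death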
Experimental: The B16 subline of high pulmonary metastatic potential and murine tumor cell line L 929 were cultured in DME medium supplemented with 10% bovine fetal serum at 37° C. in the presence of 5% CO2.
The B16 subline of high pulmanary metastatic potential and murine tumor cell line L 929 were cultured in DME medium supplemented with 10% bovine fetal serum at 37° C. in the presence of 5% CO2.

OC[C@@H]1[C@@H](O)[C@H](O)[C@@H](O)CN1CCCc1ccccc1 [N-(3-Phenylpropyl)-1-deoxynojirimycin, N-(3-phenylpropyl)-1-deoxynojirimycin]
Inhibition of metastasis to the lungs (in words) ([1]; B16 subline, BDF1 mice): shows decrease in the number of colonies
Pulmonary Metastasis, Mouse 1 ([1]; Table 3, 30 μg/ml): 9 no.
Pulmonary Metastasis, Mouse 2 ([1]; Table 3, 30 μg/ml): 22 no.
Pulmonary Metastasis, Mouse 3 ([1]; Table 3, 30 μg/ml): 37 no.
Pulmonary Metastasis (Mean ± Standard Deviation) ([1]; Table 3, 30 μg/ml): 22.7 ± 14.0 no.
Pulmonary Metastasis, % ([1]; Table 3, 30 μg/ml): 68.8%
Pulmonary Metastasis, Mouse 1 ([1]; Table 3, 100 μg/ml): 4 no.
Pulmonary Metastasis, Mouse 2 ([1]; Table 3, 100 μg/ml): 4 no.
Pulmonary Metastasis, Mouse 3 ([1]; Table 3, 100 μg/ml): 6 no.
Pulmonary Metastasis (Mean ± Standard Deviation) ([1]; Table 3, 100 μg/ml): 4.7 ± 1.2 no.
Pulmonary Metastasis, % ([1]; Table 3, 100 μg/ml): 14.7%
Pulmonary Metastasis, Mouse 1 ([1]; Table 3, 300 μg/ml): 0 no.
Pulmonary Metastasis, Mouse 2 ([1]; Table 3, 300 μg/ml): 0 no.
Pulmonary Metastasis, Mouse 3 ([1]; Table 3, 300 μg/ml): 3 no.
Pulmonary Metastasis (Mean ± Standard Deviation) ([1]; Table 3, 300 μg/ml): 1 ± 1.7 no.
Pulmonary Metastasis, % ([1]; Table 3, 300 μg/ml): 3.1%
Cytotoxicity (in words) ([2]; L 929, even at a concentration as high as 100 μg/ml): did not show marked cytotoxicity
Growth ([2]; Table 2, L 929, 0.5 μg/ml): +
Growth ([2]; Table 2, L 929, 5 μg/ml): +
Growth ([2]; Table 2, L 929, 50 μg/ml): +
Growth ([2]; Table 2, L 929, 100 μg/ml): +
